# Where “and” joins values, the source holds several entries; their conditions need not be identical. Equal values may be shown once.
# How the values were obtained:
# [1] = Body weight of mice with orthotopic HepG2/Luc liver tumors; assay type: in vivo; conditions: mean of 3, in g (unit assumed)
# [2] = Urine and faeces analysis by ICP-OES (Pt element); assay type: in vivo, mice; parameters: Pt in urine / Pt in feces: unit not given beside the values
# Description: page 47: determined using ELISA kits according to manufacturer 's protocol. Determination of the blood circulation half-life. […], or CDDP (at a dose of 2.25 mg kg-1 Pt) was i.v. injected into healthy female BALB/c nude mice (6-8 weeks old). […] The collected blood was digested with concentrated HNO3 (65-70%, 2 mL) and HCl (36~38%, 1 mL) at 90 °C overnight. The residues were then diluted with 5 mL 2% HNO3 and 5% HCl solution, and the concentrations of Pt element were determined by ICP-OES, which were further applied to calculate the contents of Pt element in the blood. The plot of the percentage of Pt element remained in the blood versus injection time to yield the pharmacokinetic time. Urine and Faeces analysis. […] Urine and faeces were collected at 2 (for 0-2 h), 4 (for 2-4 h), 8 (for 4- 8 h) and 12 h (for […]), which were diluted in methanol and centrifuged at 3,600 × g for 10 min, followed by filtering via a 0.22 μm syringe filter. The solutions were analyzed by HPLC (660 nm detection) to characterize all the mCy-containing compounds. Using the established standard curves for […] Cy-COOH, the amount of each compound in the urine and faeces could be calculated, which were further applied to determine the percentage of them in the urine and faeces. The data were summarized in Supplementary Tables 5-8. […] Urine and faeces were collected and weighed. The urine and faeces were digested with concentrated HNO3 (65~70%) and HCl (36~38%) at 90 °C for 24 h. The solution was diluted to 5 mL 2% HNO3 and 5% HCl solution, and the concentration of Pt element was measured by ICP-OES, which was further applied to calculate the percentage of Pt in corresponding urine and faeces. The data were summarized in Supplementary Tables 9 and 10. 47
# [3] = tested on: s.c. HeLa tumors; test: Biodistribution study of Pt (ICP-OES); assay type: in vivo, mice
# [4] = Urine and faeces analysis by ICP-OES (Pt element); assay type: in vivo, mice; parameters: Pt in urine / Pt in feces: unit not given beside the values; remark: listed apart in the source
# [5] = General design summary of signals and cytotoxicity (Fig. 1a)
# Text: P-CyPt is designed to (1) offer activatable near-infrared (NIR) FL and PA signals for bimodality imaging through ALP-mediated in situ self-assembly and (2) release CDDP for on-demand therapy via GSH-triggered disassembly (Fig. 1a). […] After systemic administration, P-CyPt as a small molecule can extravasate and penetrate deeply into tumor tissues (Fig. 1b). In tumor tissues that are membrane-bound ALP positive, rapid dephosphorylation of P-CyPt by the membrane-bound ALP generates CyPt, switching on NIR FL (λem = 710 nm) and PA signals (λ = 700 nm); moreover, CyPt with increased hydrophobicity is susceptible to self-assembly into Pt(IV) nanoparticles (Pt^IVNPs), which turns on another PA signal (λ = 750 nm) resulting from the aggregation-caused bathochromic shift. The on-site formed Pt^IVNPs can anchor on the cell membranes, which attenuate diffusion, prolong retention, and enhance translocation into cells[32],[33]. Within tumor cells, the abundant endogenous GSH can reduce Pt(IV) into Pt(II), producing negatively charged Cy-COOH that promotes NPs disassembly and accelerates release of CDDP intracellularly. This process dramatically raises intracellular CDDP’s concentration while depletes GSH’s level to effectively kill tumor cells. Moreover, the disassembly of Pt^IVNPs into Cy-COOH further increases NIR FL (called as “ON-ON”) as the aggregation-caused quenching (ACQ) effect is eliminated; however, the PA signal at 750 nm is turned off but the PA signal at 700 nm is kept at “ON” state. The sequential switches in NIR FL and PA bimodal imaging signals can allow P-CyPt to reliably monitor the ALP-triggered in situ self-assembly and GSH-driven disassembly process in vivo, facilitating to guide precise chemotherapy of tumors.
# [6] = tested on: s.c. HeLa tumors; test: Chemotherapy of s.c. HeLa tumors in vivo; parameters: species or system mice
# Description: Sixteen mice with s.c. […] Each experiment was conducted in four mice.
# [7] = i.v. 2.25 mg kg-1 Pt, 0-2 h, ICP-OES
compound,measurement,setting,value
CC1(C)C(/C=C/C2=C3Oc4cc(OP(=O)(O)O)c(Cl)cc4C=C3CCC2)=[N+](CCCNC(=O)[C@@H](Cc2ccccc2)NC(=O)[C@@H](Cc2ccccc2)NC(=O)CCC(=O)[O][Pt]([NH2])([NH2])([OH])([Cl])[Cl])c2ccccc21 [P-CyPt],Body weight of mice (Supplementary Fig. 34),[1]; time 0 d,19.4
same,Body weight of mice (Supplementary Fig. 34),[1]; time 3 d,19.7033
same,Body weight of mice (Supplementary Fig. 34),[1]; time 6 d,19.4233
same,Body weight of mice (Supplementary Fig. 34),[1]; time 9 d,19.8233
same,Body weight of mice (Supplementary Fig. 34),[1]; time 12 d,20.0233
same,Body weight of mice (Supplementary Fig. 34),[1]; time 15 d,19.9233
same,Percentage of Pt element excreted to the faeces,[2]; 2-4 h,5.92 ± 0.64%
same,Percentage of Pt element excreted to the urine,[2]; 2-4 h,13.38 ± 1.45%
same,Percentage of Pt element excreted to the faeces,[2]; 4-8 h,16.94 ± 1.87%
same,Percentage of Pt element excreted to the urine,[2]; 4-8 h,9.24 ± 1.49%
same,Percentage of Pt element excreted to the urine,[2]; 8-12 h,3.41 ± 0.84%
same,Pt in urine,"[2]; Fig.6g, 0-2 h, mean of 3 mice",15.772
same,Pt in urine,"[2]; Fig.6g, 0-2 h, single mice",15.461 and 17.665 and 14.190
same,Pt in urine,"[2]; Fig.6g, 2-4 h, mean of 3 mice",13.380
same,Pt in urine,"[2]; Fig.6g, 2-4 h, single mice",13.090 and 14.953 and 12.095
same,Pt in urine,"[2]; Fig.6g, 4-8 h, mean of 3 mice",9.236
same,Pt in urine,"[2]; Fig.6g, 4-8 h, single mice",9.456 and 10.608 and 7.644
same,Pt in urine,"[2]; Fig.6g, 8-12 h, mean of 3 mice",3.408
same,Pt in feces,"[2]; Fig.6h, 0-2 h, mean of 3 mice",0.386
same,Pt in feces,"[2]; Fig.6h, 0-2 h, single mice",0.346 and 0.489 and 0.323
same,Pt in feces,"[2]; Fig.6h, 2-4 h, mean of 3 mice",5.927
same,Pt in feces,"[2]; Fig.6h, 2-4 h, single mice",5.543 and 6.667 and 5.573
same,Pt in feces,"[2]; Fig.6h, 4-8 h, mean of 3 mice",16.944
same,Pt in feces,"[2]; Fig.6h, 4-8 h, single mice",16.548 and 18.982 and 15.301
same,Pt in feces,"[2]; Fig.6h, 8-12 h, mean of 3 mice",4.404
same,Pt accumulatively cleared (urine + faeces),[2]; during 12 h,~ 69.4%
same,Pt in feces,"[2]; feces collected 0-2 h, mouse-1",0.346
same,Pt in feces,"[2]; feces collected 0-2 h, mouse-2",0.489
same,Pt in feces,"[2]; feces collected 0-2 h, mouse-3",0.323
same,Pt in feces,"[2]; feces collected 2-4 h, mouse-1",5.543
same,Pt in feces,"[2]; feces collected 2-4 h, mouse-2",6.667
same,Pt in feces,"[2]; feces collected 2-4 h, mouse-3",5.573
same,Pt in feces,"[2]; feces collected 4-8 h, mouse-1",16.548
same,Pt in feces,"[2]; feces collected 4-8 h, mouse-2",18.982
same,Pt in feces,"[2]; feces collected 4-8 h, mouse-3",15.301
same,Pt in feces,"[2]; feces collected 8-12 h, mouse-1",4.215
same,Pt in feces,"[2]; feces collected 8-12 h, mouse-3",4.002
same,Percentage of Pt element excreted to the faeces,[2]; [7],0.38 ± 0.090%
same,Percentage of Pt element excreted to the urine,[2]; [7],15.78 ± 1.76%
same,"Pt in urine, mean","[2]; urine collected 0-2 h, mean of 3 mice",15.772
same,Pt in urine,"[2]; urine collected 0-2 h, mouse-1",15.461
same,Pt in urine,"[2]; urine collected 0-2 h, mouse-2",17.665
same,Pt in urine,"[2]; urine collected 0-2 h, mouse-3",14.190
same,"Pt in urine, mean","[2]; urine collected 2-4 h, mean of 3 mice",13.380
same,Pt in urine,"[2]; urine collected 2-4 h, mouse-1",13.090
same,Pt in urine,"[2]; urine collected 2-4 h, mouse-2",14.953
same,Pt in urine,"[2]; urine collected 2-4 h, mouse-3",12.095
same,"Pt in urine, mean","[2]; urine collected 4-8 h, mean of 3 mice",9.236
same,Pt in urine,"[2]; urine collected 4-8 h, mouse-1",9.456
same,Pt in urine,"[2]; urine collected 4-8 h, mouse-2",10.608
same,Pt in urine,"[2]; urine collected 4-8 h, mouse-3",7.644
same,"Pt in urine, mean","[2]; urine collected 8-12 h, mean of 3 mice",3.408
same,Pt in urine,"[2]; urine collected 8-12 h, mouse-1",3.228
same,Pt in urine,"[2]; urine collected 8-12 h, mouse-2",4.327
same,Pt in urine,"[2]; urine collected 8-12 h, mouse-3",2.669
same,organ with the highest ID% g^−1,[3]; 4 h post i.v. injection,tumors
same,ID% g^−1 of Pt in tumors,"[3]; s.c. HeLa tumors, 4 h post i.v. (100 μM, 200 μL), ICP-OES",~20.3%
same,Percentage of Pt element excreted to the faeces,[4]; 8-12 h,4.40 ± 0.52%
same,Pt in urine,"[4]; Fig.6g, 8-12 h, single mice",3.228 and 4.327 and 2.669
same,Pt in feces,"[4]; Fig.6h, 8-12 h, single mice",4.215 and 4.995 and 4.002
same,Pt in feces,"[4]; feces collected 8-12 h, mouse-2",4.995
same,Cytotoxicity,[5],Low
same,FL at 710 nm,[5],Low
same,PA at 700 nm,[5],Low
same,PA at 750 nm,[5],Low
same,average tumor weight at end of treatment,[6]; day 21,significantly smaller than the other three groups
same,tumor volume growth on day 21,"[6]; s.c. HeLa, 2.25 mg kg^−1 Pt i.v. on day 0, 3, 6, 9, 12",no apparent tumor growth
